Measured values: US9747412B2, “Method for identifying activation of transferases” (HVIVO SERVICES LIMITED, priority 2010, dated 2017)

Test system: epithelial cell line MCF10A
Test: Global Kinase Activity Profiling (GKAP) of lysates of cells treated with EGF and kinase inhibitors
Type: cell-based, human
Details: for Decrease in the number of EGF-dependent kinase activities detected: MCF10A cells pre-treated 1 h with inhibitor (5 μM LY294002 or 10 μM U0126) before 100 ng/ml EGF for 10 min

Compound | Decrease in the number of EGF-dependent kinase activities detected | Number of kinase reactions that increased as a function of treatment (treatment with EGF (summary statement))
O=c1cc(N2CCOCC2)oc2c(-c3ccccc3)cccc12 [LY92004] | about 30% | 
EGF: recombinant human EGF (Peprotech AF-100-15), growth factor activating kinase pathways downstream of its receptor (NSDSECPLSHDGYCLHDGVCMYIEALDKYACNCVVGYIGERCQYRDLKWWELR; UniProt P01133 971-1023, looked up) |  | > 300
N#CC(=C(/N)Sc1ccccc1N)/C(C#N)=C(\N)Sc1ccccc1N [U0126] | about 30% | 
